From US9204653B2, “5-fluoro pyrimidine derivatives” (DOW AGROSCIENCES LLC, priority 2008, dated 2015)
Read-outs that look alike come from different tables or passages of the source.

System: Mycosphaerella graminicola; Anamorph: Septoria tritici; Bayer Code SEPTTR
Assay: Leaf blotch of wheat, foliar fungicide treatment, one day protectant (1DP) or three day curative (3DC)
Assay type: in vivo, Septoria tritici on wheat plants (variety Yuma)
Details: Zymoseptoria tritici, rating of percent disease control
[1] = 24 h, one day protectant (1DP), read-out: SETTTR 1DP 25 ppm
[2] = 24 h, one day protectant (1DP), read-out: SEPTTR 1DP 100 ppm
[3] = 72 h, three day curative (3DC), read-out: SEPTTR 3DC 25 ppm
[4] = 72 h, three day curative (3DC), read-out: SEPTTR 3DC 100 ppm

Structure (SMILES)	pest or weed control at 25 ppm [1] [%]	pest or weed control at 100 ppm [2] [%]	pest or weed control at 25 ppm [3] [%]	pest or weed control at 100 ppm [4] [%]
O=C(Nc1cccs1)Nc1nc(OCc2ccc(F)cc2)ncc1F [Compound 376]	0 to 25	0 to 25	0 to 25	26 to 50
Cc1ccc(COc2ncc(F)c(/N=C3\CCCCN3C)n2)cc1 [Compound 377]	76 to 100	76 to 100	51 to 75	76 to 100
Nc1nc(Oc2ccc(Cl)c3ccccc23)ncc1F [Compound 378]	51 to 75	76 to 100	76 to 100	76 to 100
CCOCNc1nc(OC(C)c2ccc(F)cc2)ncc1F (stereo not shown) [Compound 379]	76 to 100	76 to 100	51 to 75	76 to 100
NN(Cc1ccccc1)c1nc(OCc2ccc(F)cc2)ncc1F [Compound 380]	76 to 100	76 to 100	0 to 25	76 to 100
Nc1nc(OCc2cccc3ccsc23)ncc1F [Compound 381]	76 to 100	76 to 100	76 to 100	76 to 100
CC(Oc1ncc(F)c(N)n1)c1c(Cl)ccc(Cl)c1Cl (stereo not shown) [Compound 382]	76 to 100	76 to 100	0 to 25	76 to 100
Nc1nc(OCc2ccccc2Cn2cncn2)ncc1F [Compound 383]	0 to 25	0 to 25	26 to 50	0 to 25
CC(C)(C)Oc1cccc(COc2ncc(F)c(N)n2)c1 [Compound 385]	76 to 100	76 to 100	76 to 100	76 to 100
COc1ccc(COc2ncc(F)c(N)n2)cc1C [Compound 386]	76 to 100	76 to 100	76 to 100	76 to 100
CC(C)c1ccc(C(C)Oc2ncc(F)c(N)n2)cc1 (stereo not shown) [Compound 387]	76 to 100	76 to 100	76 to 100	76 to 100
COCCOC(=O)Oc1ncc(F)c(/N=C/N(C)C)n1 [Compound 389]	76 to 100	76 to 100	76 to 100	76 to 100
ONc1nc(OCc2ccccc2)ncc1F [Compound 390]	76 to 100	76 to 100	76 to 100	76 to 100
Nc1nc(OCc2ccccc2I)ncc1F [Compound 391]	51 to 75	76 to 100	26 to 50	76 to 100
Nc1nc(OCc2ccoc2)ncc1F [Compound 392]	76 to 100	76 to 100	76 to 100	76 to 100
CC(Oc1ncc(F)c(N)n1)c1ccc([N+](=O)[O-])cc1 (stereo not shown) [Compound 393]	26 to 50	76 to 100	26 to 50	76 to 100
O=C(Cc1ccccc1)Nc1nc(OCc2ccc(F)cc2)ncc1F [Compound 394]	76 to 100	76 to 100	76 to 100	76 to 100
CN(N)c1nc(OCc2ccccc2)ncc1F [Compound 395]	0 to 25	0 to 25	26 to 50	51 to 75
Cn1nc(COc2ncc(F)c(N)n2)c2ccccc21 [Compound 396]	76 to 100	76 to 100	76 to 100	76 to 100
CNN(C)c1nc(OCc2ccc(F)cc2)ncc1F [Compound 397]	0 to 25	0 to 25	0 to 25	0 to 25
Cc1ccc(COc2ncc(F)c(NC(=O)NCc3ccccc3F)n2)cc1 [Compound 398]	0 to 25	0 to 25	0 to 25	26 to 50
Cc1c(N)cccc1COc1ncc(F)c(N)n1 [Compound 399]	51 to 75	76 to 100	76 to 100	76 to 100
CCOc1ccc(COc2ncc(F)c(N)n2)cc1 [Compound 400]	76 to 100	76 to 100	76 to 100	76 to 100

Structure (SMILES)	pest or weed control at 25 ppm [1] [%]	pest or weed control at 100 ppm [2] [%]	pest or weed control at 25 ppm [3] [%]	pest or weed control at 100 ppm [4] [%]
Nc1nc(OCc2ccnc3ccccc23)ncc1F [Compound 401]	76 to 100	76 to 100	76 to 100	76 to 100
Cc1ccc(COc2ncc(F)c(/N=C/N3CCOCC3)n2)cc1 [Compound 402]	76 to 100	76 to 100	76 to 100	76 to 100
CCC(C)C(Oc1ncc(F)c(N)n1)c1ccc(F)cc1 (stereo not shown) [Compound 403]	76 to 100	76 to 100	26 to 50	76 to 100
Nc1nc(OCc2cc(Cl)cc(Cl)c2)ncc1F [Compound 404]	76 to 100	76 to 100	76 to 100	76 to 100
COc1ccccc1COc1ncc(F)c(/N=C/N(C)C)n1 [Compound 405]	76 to 100	76 to 100	76 to 100	76 to 100
Nc1nc(OC(c2ccccc2)c2ccc(F)cc2)ncc1F (stereo not shown) [Compound 406]	76 to 100	76 to 100	76 to 100	76 to 100
COc1cccc(COc2ncc(F)c(N3CCCCC3)n2)c1 [Compound 407]	0 to 25	0 to 25	0 to 25	0 to 25
Nc1nc(OCc2ccco2)ncc1F [Compound 409]	76 to 100	76 to 100	76 to 100	76 to 100
Cn1ccc(COc2ncc(F)c(NCOCc3ccccc3)n2)n1 [Compound 412]	0 to 25	76 to 100	0 to 25	51 to 75
Nc1nc(OC(=O)c2ccccc2)ncc1F [Compound 413]	76 to 100	76 to 100	76 to 100	76 to 100
COc1ccccc1COc1ncc(F)c(NC(=O)OCc2ccccc2)n1 [Compound 415]	51 to 75	76 to 100	76 to 100	76 to 100
COc1cccc(COc2ncc(F)c(NCc3ccccc3F)n2)c1 [Compound 416]	0 to 25	0 to 25	0 to 25	26 to 50
CN(C)/C=N/c1nc(OC(=O)C2CC2)ncc1F [Compound 417]	76 to 100	76 to 100	76 to 100	76 to 100
COCCOC(=O)Nc1nc(OCc2ccc(C)cc2)ncc1F [Compound 419]	76 to 100	76 to 100	76 to 100	76 to 100
CC(C)C(=O)Oc1ncc(F)c(/N=C/N(C)C)n1 [Compound 420]	76 to 100	76 to 100	76 to 100	76 to 100
CN1CCCC/C1=N\c1nc(OCc2ccccc2)ncc1F [Compound 421]	76 to 100	76 to 100	76 to 100	76 to 100
Cc1ccc(C(=O)Oc2ncc(F)c(/N=C/N(C)C)n2)c(C)c1 [Compound 422]	76 to 100	76 to 100	76 to 100	76 to 100
Nc1nc(OCc2cccc(O)c2)ncc1F [Compound 423]	0 to 25	0 to 25	0 to 25	0 to 25
CC(Oc1ncc(F)c(/N=C2\CCCCN2C)n1)c1ccc(F)cc1 (stereo not shown) [Compound 424]	51 to 75	76 to 100	51 to 75	76 to 100
CN(C)/C=N/c1nc(OC(=O)Oc2cccc(C(F)(F)F)c2)ncc1F [Compound 425]	76 to 100	76 to 100	76 to 100	76 to 100
C/C(=N\Oc1ncc(F)c(/N=C/N(C)C)n1)c1ccccc1 [Compound 427]	76 to 100	76 to 100	76 to 100	76 to 100
Nc1nc(OC(=O)c2snc(Cl)c2Cl)ncc1F [Compound 428]	51 to 75	51 to 75	26 to 50	76 to 100
Nc1nc(OCc2cnc(Cl)s2)ncc1F [Compound 429]	76 to 100	76 to 100	76 to 100	76 to 100
